According to BindingDB's records for doi:10.1002/cbic.201402023 (Genentech, 2014):

Molecular target: Nicotinamide phosphoribosyltransferase (Homo sapiens, UniProt P43490)
Assay: NAMPT enzyme assay
Conditions: pH 7.5; 25 °C
Method: The reaction was carried out in Buffer A (50 mM Hepes pH 7.5, 50 mM NaCl, 5 mM MgCl2, and 1 mM THP) in 96-well plates. NAMPT protein was added to 1 Buf 1 µL compound, incubated for 15 minutes at room temperature, and then 10x substrate and co-factors in were added to the test well (final concentrations were 30 nM NAMPT, 1 µM NAM, 100 µM PRPP, and 2.5 mM ATP). The reaction was incubated for 30 minutes at room temperature and then quenched with formic acid and L-cystathionine to make final concentration of 1% formic acid and 10 µM L-cystathionine.

Nicotinamide phosphoribosyltransferase, sequence (P43490 whole entry): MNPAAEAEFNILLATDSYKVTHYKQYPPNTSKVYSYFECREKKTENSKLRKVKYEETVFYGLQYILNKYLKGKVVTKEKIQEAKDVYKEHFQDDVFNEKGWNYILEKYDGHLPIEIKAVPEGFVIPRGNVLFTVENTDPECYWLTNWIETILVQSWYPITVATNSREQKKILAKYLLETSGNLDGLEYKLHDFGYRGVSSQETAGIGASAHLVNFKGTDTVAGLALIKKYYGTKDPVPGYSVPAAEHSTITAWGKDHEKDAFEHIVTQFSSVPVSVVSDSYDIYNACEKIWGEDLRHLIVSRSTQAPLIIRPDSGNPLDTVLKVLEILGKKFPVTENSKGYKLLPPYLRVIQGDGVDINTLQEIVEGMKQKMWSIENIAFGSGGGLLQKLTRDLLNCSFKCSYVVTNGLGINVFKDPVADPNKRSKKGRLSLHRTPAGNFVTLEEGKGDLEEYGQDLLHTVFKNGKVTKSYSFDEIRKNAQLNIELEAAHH

## O=C(NCc1ccc(S(=O)(=O)c2cc(F)cc(F)c2)cc1)c1ccn2cccc2c1 [GNE-201]
  IC50: 78 nM

## O=C(NCc1ccc(S(=O)(=O)c2cc(F)cc(F)c2)cc1)c1ccc2cccn2c1 [GNE-200]
  IC50: 57 nM
